Consider 20 molecules from article PMC8769072, “Proteome‐scale mapping of binding sites in the unstructured regions of the human proteome” (Molecular Systems Biology, 2022).

Where two headings read alike, the source gives them in different places. Where a SMILES comes first, the peptide text is derived from it. Where no end group is shown, it is not given here. [ ]: non-standard residue; d: D form. pY = N[C@@H](Cc1ccc(OP(=O)(O)O)cc1)C(=O)O; pS = N[C@@H](COP(=O)(O)O)C(=O)O

What all share (type): binding
The target in one test is T1, KPNB1 HEAT (Homo sapiens, UniProt Q14974).
T1 construct: Q14974; KPNB1; HEAT; 485; pETM41; Genescript; 6-His-MBP (from vector pETM41) (cleaved yes); made in house; host or cells: bacteria (E. coli BL21(DE3) gold is named only for the phage-selection preparations)
T1 sequence (Q14974 1-485): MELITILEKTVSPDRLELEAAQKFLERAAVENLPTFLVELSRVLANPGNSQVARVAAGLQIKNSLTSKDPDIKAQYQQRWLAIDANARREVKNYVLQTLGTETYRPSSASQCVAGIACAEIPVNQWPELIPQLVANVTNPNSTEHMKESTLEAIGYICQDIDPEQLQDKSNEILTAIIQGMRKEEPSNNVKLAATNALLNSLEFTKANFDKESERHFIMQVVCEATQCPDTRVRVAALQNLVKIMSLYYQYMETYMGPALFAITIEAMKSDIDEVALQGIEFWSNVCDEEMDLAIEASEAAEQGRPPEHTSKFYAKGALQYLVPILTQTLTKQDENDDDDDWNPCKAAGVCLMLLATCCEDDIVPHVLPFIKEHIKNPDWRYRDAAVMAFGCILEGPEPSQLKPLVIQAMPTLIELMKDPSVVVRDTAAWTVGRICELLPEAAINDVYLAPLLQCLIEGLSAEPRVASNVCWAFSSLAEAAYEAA
As to the kind of experiment: FP competition, KPNB1 HEAT. As to conditions: for Ki: FP competition with FITC-NUP153 probe, low-affinity value.

In test [1] the target is T2, KPNA4 ARM (Homo sapiens, UniProt O00629).
T2 construct: O00629; KPNA4; Arm; 68; 487; pETM33/pETM41; Genescript; made in house; host or cells: bacteria (E. coli BL21(DE3) gold is named only for the phage-selection preparations)
T2 sequence (O00629 68-487): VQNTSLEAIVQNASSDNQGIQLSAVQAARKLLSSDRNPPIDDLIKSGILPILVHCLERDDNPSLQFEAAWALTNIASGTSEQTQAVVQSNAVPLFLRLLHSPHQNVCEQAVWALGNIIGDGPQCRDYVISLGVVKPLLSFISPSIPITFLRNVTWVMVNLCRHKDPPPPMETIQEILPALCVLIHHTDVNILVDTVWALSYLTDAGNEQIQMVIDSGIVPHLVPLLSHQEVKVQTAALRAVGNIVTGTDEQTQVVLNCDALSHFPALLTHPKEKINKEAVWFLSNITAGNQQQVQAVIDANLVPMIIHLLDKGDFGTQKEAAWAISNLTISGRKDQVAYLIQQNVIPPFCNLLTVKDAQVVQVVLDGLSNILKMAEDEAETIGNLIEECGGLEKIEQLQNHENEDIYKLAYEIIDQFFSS
As to the kind of experiment: FP competition, KPNA4 ARM minor pocket (FITC-NCOR2 probe). The settings on record: for effect of phosphorylation on the affinity for KPNA4, in words: FP competition with FITC-NCOR2 probe, phosphorylated versus unphosphorylated NCOR1 peptide. From the text: (§1) Like other importins, KPNA4 has two distinct NLS‐binding pockets on the surface of an armadillo (ARM) repeat fold (major pocket, ARM 2–4; minor pocket, ARM 6–8; Fig 5B) (Smith et al, [2018]). Bipartite NLSs are usually 17–19 amino acids long and engage both pockets. Monopartite NLSs are short basic stretches, divided into five classes (Kosugi et al, [2009]): class I KR[KR]R or K[KR]RK, class II [PR]xxKR[^DE][KR] (where ^ indicates “not”), class III KRx[WFY]xxAF, class IV [RP]xxKR[KR][^DE], and class V LGKR[KR][WFY]. The class I and class II motifs preferentially interact with the major pocket (Kosugi et al, [2009]). In contrast, class III and class IV NLSs preferentially bind to the minor pocket. Using KPNA4 as a bait against the HD2 P8 library we identified 33 peptides found in 32 proteins. Of the 26 proteins for which information was available, 22 proteins were annotated as having nuclear or nucleolar localization in the UniProt database. To gain additional information we combined the data generated for KPNA4 by screening against the complete P8 HD2 library, with the results generated using two relevant sublibraries (the cytoplasmic and nuclear, and nuclear sublibraries) resulting in a set of 92 peptides containing NLS‐like sequences found in 76 proteins. Using these peptides we could generate consensus motifs that matched four of the previously reported NLS classes (Fig 5A; class I‐IV). […] Three peptides bound only to the major pocket. Eight peptides with class III motif and one KRxH‐containing peptide only bound to the minor pocket. Five peptides outcompeted both probe peptides, which may be explained by the amino acid sequence matching both class II and class III motifs (e.g., 1135‐ PSPKRKL ‐1139 in ZNF532; Fig 5), and possibly by cross specificity of the two binding pockets.

Test [2] addresses T2, KPNA4 ARM. Description: FP competition, KPNA4 ARM major pocket (FITC-Myc probe). As to conditions: FP competition with FITC-Myc320-328 probe for the major pocket; 50 mM KPO4 pH 7.5; n = 3 technical replicates.
Description: as §1

The target in a further test is T3, TLN1 PTB (Homo sapiens, UniProt Q9Y490).
T3 construct: Q9Y490; TLN1; PTB; 309; pHH0103; Sidhu Lab (PMID: 33438817); made in house; host or cells: bacteria (E. coli BL21(DE3) gold is named only for the phage-selection preparations)
T3 sequence (Q9Y490 309-401): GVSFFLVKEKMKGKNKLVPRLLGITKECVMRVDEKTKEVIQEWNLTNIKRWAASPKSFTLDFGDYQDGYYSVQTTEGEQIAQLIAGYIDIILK
As to the kind of experiment: FP competition, TLN1 PTB.

A further test addresses T4, KEAP1 Kelch (Homo sapiens, UniProt Q14145).
T4 construct: Q14145; KEAP1; Kelch; 321; 609; pETM33; Genescript; made in house; host or cells: bacteria (E. coli BL21(DE3) gold is named only for the phage-selection preparations)
As to the kind of experiment: FP competition, KEAP1 Kelch. The settings on record: for binding to KEAP1 Kelch, result in words: FP competition with FITC-NFE2L1 probe.

For orientation: Ki means a measure of affinity in units of concentration, obtained from inhibition or displacement. As usually defined, the IC50 is the point on the concentration scale where inhibition reaches its midpoint. Read a low IC50 as greater potency in that assay.

T4 sequence (Q14145 321-609): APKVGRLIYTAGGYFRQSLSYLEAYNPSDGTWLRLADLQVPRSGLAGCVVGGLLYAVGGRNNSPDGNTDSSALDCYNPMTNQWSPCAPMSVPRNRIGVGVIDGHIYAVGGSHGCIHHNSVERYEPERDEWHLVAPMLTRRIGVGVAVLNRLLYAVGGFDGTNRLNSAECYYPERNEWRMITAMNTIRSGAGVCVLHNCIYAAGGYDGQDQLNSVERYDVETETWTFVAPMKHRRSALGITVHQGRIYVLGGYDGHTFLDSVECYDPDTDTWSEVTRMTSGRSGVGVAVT
Description for KEAP1 Kelch: Fluorescence polarization affinity measurements were carried out with an iD5 multidetection plate reader (Molecular Devices) using Corning assay 96‐well half area black Flat‐bottom Nonbinding surface plates (Corning, USA #3993). The settings were 485 nm excitation and 535 nm for emission at a reading height of 1.76 mm and total volume of 50 µl. Peptides were obtained from GeneCust (France) at > 95% purity. Unlabeled peptides were dissolved in 50 mM KPO4 or 50 mM NaPO4, pH 7.5. FITC‐labeled peptides were dissolved in dimethyl sulfoxide (DMSO). Protein for saturation experiments, or peptides for the displacement experiments, were arrayed in serial dilution in 50 mM KPO4 pH 7.5 in 25 µl, followed by addition of 25 µl of a master mix. For saturation binding experiments, the master mix contained 2 mM DTT and 10 nM FITC‐labeled peptide in 50 mM KPO4 pH 7.5 or 50 mM NaPO4 pH 7.5. For competition experiments, the master mix was supplemented with the protein of interest at a concentration of four times the K D value. Data were analyzed with GraphPad Prism version 9.0.0 for MacOS (GraphPad Software, San Diego, California USA, www.graphpad.com). For direct binding, we used a quadratic equation with pept indicating the fixed probe peptide concentrations, X indicating the protein concentration, the constant A being the signal amplitude divided by probe peptide concentration, and B is the plateau value: Y=A∗pept+X+KD‐(pept+X+KD)^2‐4∗pept∗X/2+B.
For the FP competition experiments data were fitted to a sigmoidal dose–response (variable response; GraphPad Prism).

`CC(=O)NCC(=O)N[C@@H](Cc1ccc(O)cc1)C(=O)N[C@H](C(=O)N[C@@H](Cc1ccccc1)C(=O)N[C@@H](CCC(N)=O)C(=O)N[C@H](C(=O)N[C@@H](CCC(N)=O)C(=O)N[C@@H](CC(=O)O)C(=O)NCC(=O)N[C@@H](C)C(=O)N1CCC[C@H]1C(=O)NCC(=O)N[C@H](C(=O)N[C@@H](Cc1ccccc1)C(=O)N[C@@H](CC(N)=O)C(=O)N[C@@H](Cc1ccccc1)C(=O)O)[C@@H](C)O)C(C)C)[C@@H](C)O` [KPNA2_514–529] had a Ki at KPNB1 HEAT of 1000 µM. As for `CC[C@H](C)[C@H](NC(=O)[C@H](CC(N)=O)NC(=O)CNC(=O)[C@H](CCC(=O)O)NC(=O)[C@@H](NC(=O)[C@H](CO)NC(=O)[C@H](CCC(=O)O)NC(=O)[C@H](Cc1ccc(O)cc1)NC(=O)[C@H](CO)NC(=O)[C@H](CCCNC(=N)N)NC(=O)[C@H](CCCCN)NC(=O)[C@H](CC(C)C)NC(=O)[C@H](COP(=O)(O)O)NC(=O)[C@@H](NC(=O)[C@H](CCC(=O)O)NC(C)=O)[C@@H](C)CC)C(C)C)C(=O)N[C@@H](CCCCN)C(N)=O` [NCOR1 pS1242] (Ac-EI[pS]LKRSYESVEGNIK-NH2), on KPNA4 ARM [1], the IC50 was found to be 31 µM and the “effect of phosphorylation on the affinity for KPNA4, in words” value is recorded as “minor effects”. For `CC[C@H](C)[C@H](NC(=O)[C@H](CC(N)=O)NC(=O)CNC(=O)[C@H](CCC(=O)O)NC(=O)[C@@H](NC(=O)[C@H](CO)NC(=O)[C@H](CCC(=O)O)NC(=O)[C@H](Cc1ccc(O)cc1)NC(=O)[C@H](COP(=O)(O)O)NC(=O)[C@H](CCCNC(=N)N)NC(=O)[C@H](CCCCN)NC(=O)[C@H](CC(C)C)NC(=O)[C@H](CO)NC(=O)[C@@H](NC(=O)[C@H](CCC(=O)O)NC(C)=O)[C@@H](C)CC)C(C)C)C(=O)N[C@@H](CCCCN)C(N)=O` [NCOR1 pS1246] (Ac-EISLKR[pS]YESVEGNIK-NH2), in that order: 240 µM and “marked loss of affinity”.

As for `CC[C@H](C)[C@H](NC(=O)[C@H](CC(N)=O)NC(=O)CNC(=O)[C@H](CCC(=O)O)NC(=O)[C@@H](NC(=O)[C@H](CO)NC(=O)[C@H](CCC(=O)O)NC(=O)[C@H](Cc1ccc(OP(=O)(O)O)cc1)NC(=O)[C@H](CO)NC(=O)[C@H](CCCNC(=N)N)NC(=O)[C@H](CCCCN)NC(=O)[C@H](CC(C)C)NC(=O)[C@H](CO)NC(=O)[C@@H](NC(=O)[C@H](CCC(=O)O)NC(C)=O)[C@@H](C)CC)C(C)C)C(=O)N[C@@H](CCCCN)C(N)=O` [NCOR1 pY1247] (Ac-EISLKRS[pY]ESVEGNIK-NH2), at KPNA4 ARM [1], the IC50 stood at 21 µM and the “effect of phosphorylation on the affinity for KPNA4, in words” value was “minor effects”. On to `CC(C)C[C@H](NC(=O)[C@H](CCCNC(=N)N)NC(=O)[C@@H]1CCCN1C(=O)[C@H](CCCNC(=N)N)NC(=O)[C@H](CCCCN)NC(=O)[C@H](CC(N)=O)NC(=O)[C@@H]1CCCN1C(=O)[C@H](Cc1ccccc1)NC(=O)[C@@H](NC(=O)[C@H](CC(=O)O)NC(=O)[C@H](CCC(=O)O)NC(=O)[C@@H](N)CO)[C@@H](C)O)C(=O)N[C@@H](CCC(=O)O)C(=O)N[C@@H](CC(=O)O)C(=O)N[C@@H](CCCCN)C(=O)N[C@H](C(=O)N[C@H](C(N)=O)C(C)C)[C@@H](C)O` [SPRTN], for which, on KPNA4 ARM [2], the IC50 is 0.26 µM.

At KPNA4 ARM [1], `CC(C)C[C@H](NC(=O)[C@H](CCCCN)NC(=O)[C@H](CCCNC(=N)N)NC(=O)[C@H](CCCCN)NC(=O)[C@@H]1CCCN1C(=O)[C@H](CO)NC(=O)[C@@H]1CCCN1)C(=O)N[C@@H](CCC(=O)O)C(=O)N[C@@H](CCC(=O)O)C(=O)N1CCC[C@H]1C(=O)N[C@H](C(=O)N[C@@H](CC(C)C)C(=O)N[C@@H](CCC(=O)O)C(=O)N[C@@H](Cc1ccccc1)C(=O)N[C@@H](CCCNC(=N)N)C(=O)N1CCC[C@H]1C(N)=O)C(C)C` [ZNF532] gave an IC50 of 1.3 µM. Molecule AGVKRSAAEMYGSVTE-NH2 [HNRNPC] showed an IC50 at KPNA4 ARM [1] of 0.5 µM. This IC50 lies about 2.6-fold lower than the previous one.

In turn, AKWDTANNPLYKEATS-NH2 [ITB3] yielded an IC50 at TLN1 PTB of 1430 µM. This molecule came in with a Ki at TLN1 PTB (FP competition with FITC-PIP5K1C probe) of 500 µM. Regarding Ac-AYAPPVFVFQKDKGQK-NH2 [RANBP3], at KPNB1 HEAT, the 50% inhibitory concentration (IC50) stood at 2200 µM and the Ki was ~1000 µM. The molecule Ac-EISLKRSYESVEGNIK-NH2 [NCOR1 Wt] showed an IC50 at KPNA4 ARM [1] of 11 µM.

Ac-GIIDPSTGECFPVTDY-NH2: at KEAP1 Kelch, the IC50 came out at 2.3 µM and the “binding to KEAP1 Kelch, result in words” value is listed as “no effect on binding”. “Ac-GIIDPSTGERFPVTDY-NH2 [PLEC 4457-4471]” came in with an IC50 at KEAP1 Kelch of 1.5 µM. The same measure, in the same setting: the value for Ac-LIYVDKENGEPGTRVV-NH2 [PTTG1] was 3 µM. Ac-NPPVATFVFGQSSNPY-NH2 [NUP153]: the IC50 on KPNB1 HEAT came out at 49 µM. Turning to Ac-PPLPPPPLPPAPSLPY-NH2 [ATF5], the IC50 on KEAP1 Kelch amounted to 4430 µM. In the case of Ac-VLPDCLTDGSDVVSDY-NH2 [CFAP36], the Ki at KEAP1 Kelch (FP competition with FITC-NFE2L1 228-243 probe, protein at 4x KD and 10 nM probe in master mix, 50 mM KPO4 pH 7.5, Ki calculated from IC50, triplicates) is > 2040 µM. The IC50 on KEAP1 Kelch (FP competition with FITC-NFE2L1 228-243 probe, protein at 4x KD and 10 nM probe in master mix, 50 mM KPO4 pH 7.5, triplicates) is > 2040 µM. Also, at KEAP1 Kelch, the “binding to KEAP1 Kelch, result in words” value is reported as “did not bind at all”. Ac-YDEEKGEFLPIQPAQH-NH2 [NFE2L2 T80K]: the IC50 at KEAP1 Kelch worked out at 2540 µM. In other words, the millimolar range. Still for that read-out and setting: for Ac-YDEETGEFLPIQPAQH-NH2 [NFE2L2 Wt] the value was 0.31 µM; for Ac-YDEKTGEFLPIQPAQH-NH2 [NFE2L2 E79K], 1650 µM; for Ac-YMQHLQEQQQQQMHLQ-NH2 [TREF1], 490 µM.
